Results reported in PubChem BioAssay AID493250 (Broad Institute, 2011).
Active and inactive are the calls of the source.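 How the source made its calls: active means signal decrease with fitted half-maximal dose at or below ten times the highest valid tested dose; inconclusive means poor fit, or flat fit at 30 to 70% inhibition; inactive means the rest.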

Each molecule was assayed against Zinc finger protein mex-5 (Caenorhabditis elegans) (UniProt Q9XUB2) (assay: MEX-5 zinc finger-RNA interaction blockers – biochemical, fluorescence polarization, C. elegans, cherry-picked, round 3, dose response (AID 493250)). Settings: purified MEX-5-MBP, FITC-TCR2 RNA fluorescence polarization.
Zinc finger protein mex-5 (Caenorhabditis elegans), sequence (Q9XUB2 whole entry, looked up): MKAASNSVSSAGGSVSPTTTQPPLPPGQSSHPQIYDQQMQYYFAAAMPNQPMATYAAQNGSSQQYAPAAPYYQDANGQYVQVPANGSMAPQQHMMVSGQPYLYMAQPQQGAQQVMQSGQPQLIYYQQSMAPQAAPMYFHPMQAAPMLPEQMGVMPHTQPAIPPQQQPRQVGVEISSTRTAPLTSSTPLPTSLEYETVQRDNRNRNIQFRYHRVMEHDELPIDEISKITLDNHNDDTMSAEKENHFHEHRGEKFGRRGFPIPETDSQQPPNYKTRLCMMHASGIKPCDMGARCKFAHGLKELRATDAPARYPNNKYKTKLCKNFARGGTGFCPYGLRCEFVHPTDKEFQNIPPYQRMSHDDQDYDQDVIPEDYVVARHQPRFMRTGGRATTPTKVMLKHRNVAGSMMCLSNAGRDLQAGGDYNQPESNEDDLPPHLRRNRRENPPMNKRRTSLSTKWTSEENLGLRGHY

Row | Compound | AC50
1 | Cc1cccc2c(N=Nc3ccccc3)c(O)[nH]c12 | > 10000 nM (inactive)
2 | CCOc1cc(/C=C2\CCCc3c2nc2ccccc2c3C(=O)O)ccc1OC | 906 nM
3 | CCOC(=O)/C(=C/c1ccc(N2CCC(c3ccccc3)=N2)cc1)C(C)=O | 2430 nM
4 | COc1ccc(-n2c(O)c(/C=N/NS(=O)(=O)c3cc(C)ccc3C)c3ccccc3c2=O)cc1OC | 1320 nM
5 | Cc1cccc(N2C(=O)NC(=O)/C(=C/c3cc4c(cc3[N+](=O)[O-])OCO4)C2=O)c1 | 9860 nM
6 | CNC(=O)c1sc(N2N=C3/C(=C/c4ccccc4)CCCC3C2c2ccccc2)nc1C (stereo not given) | 7590 nM
7 | Cn1c(O)c(N=Nc2ccc(F)cc2)c2ccccc21 | 1750 nM
8 | CCCOc1cc(N(CC)CC)ccc1/C=C(/C#N)c1nc2ccc(C)cc2[nH]1 | 6330 nM

Same assay, conditions: purified MEX-5-MBP, FITC-TCR2 RNA fluorescence polarization; at 10 µM (top of the series)

Row | Compound | activity change, negative = inhibition
9 | COc1ccc(C2NC(=O)N(CCCC(=O)O)C(C)=C2C(=O)OCc2ccccc2)cc1 (stereo not given) | inactive
10 | CSc1ccccc1N=Cc1nc(-c2ccccc2)oc1O | inactive
11 | COc1cc2c3c(c1OC)-c1cc(O)ccc1CC3NCC2 (stereo not given) | inactive
12 | COc1ccc(N=C2S/C(=C\c3ccc(N4CCOCC4)o3)C(=O)N2CCc2c[nH]c3ccccc23)cc1 | inactive
13 | CC(=O)O[C@@H]1[C@@H](O)[C@@H](O)[C@H](Oc2c(-c3ccc(O)cc3)oc3c(CC=C(C)C)c(O)cc(O)c3c2=O)O[C@H]1C | inactive
14 | CC(=O)c1cc(NC(=O)c2ccc(C)cc2)c(=O)oc1C | inactive
15 | Cc1cccc(-n2c(N)c(-c3nc4ccccc4n3C)c3nc4ccccc4nc32)c1 | inactive
16 | C#CCOCCOCCOCCNc1nc(N2CCN(C(=O)[C@H](CCCCN)n3cc(C(N)CO)nn3)CC2)nc(N2CCN(C(=O)[C@H](CCC(=O)O)n3cc(C(N)CC(C)C)nn3)CC2)n1 (stereo not given in full) | inactive
17 | O=C(O)c1cc(Oc2ccc(C(F)(F)F)cc2Cl)ccc1[N+](=O)[O-] | inactive
18 | O=C(O)c1[nH]c2ccccc2c1C(c1cc(Br)ccc1O)c1c(C(=O)O)[nH]c2ccccc12 | inactive
19 | CCN(CC)c1ccc(N=Cc2c(O)n(-c3ccccc3C)c(=O)[nH]c2=O)cc1 | inactive
20 | Cc1c(Br)c(=O)oc2c(Br)c(O)c(O)cc12 | inactive
21 | COC(=O)c1ccc(-c2ccc(C(c3c(C)[nH][nH]c3=O)c3c(C)[nH][nH]c3=O)o2)cc1 | inactive
22 | O=C(O)CSc1ncnc2nc[nH]c12 | inactive
23 | COc1ccc(/C=N/Nc2nc(=O)[nH]nc2C)cc1[N+](=O)[O-] | inactive
24 | Cn1cc(CNC(=O)C2c3ccccc3Oc3ccccc32)cn1 | inactive
25 | Cc1nc2ccc(NC(=O)NC(=O)c3c(Cl)cccc3Cl)cc2o1 | inactive
26 | O=C1S/C(=C\c2cccs2)C(=O)N1c1ccc(O)cc1 | inactive
27 | CC(C)(C)CC(C)(C)NCC(O)COc1ccc2c(c1)CCC2 (stereo not given) | inactive

Row | Compound | activity change, negative = inhibition
28 | CCC(=O)N(CC)C1=C(O)c2ccccc2C(=O)C1=O | inactive
29 | CSCCCN1CCC(n2nccc2NC(=O)CCCc2ccccc2)CC1 | inactive
30 | N[C@@H](Cc1ccccc1)C(=O)N1CCC(C(=O)NCC(=O)Nc2ccc(F)cc2)CC1 | inactive
31 | Cc1cc(C)c2ccc(C(=O)O)nc2c1O | inactive
32 | Cc1nc2c(N=Nc3ccccc3F)c(N)nn2c(N)c1C#N | inactive
33 | COc1cccc(CNC23CC4CC(CC(C4)C2)C3)c1OCc1ccccc1 | inactive
34 | CCCOc1ccc(C2=CSC3=NCCN23)cc1[N+](=O)[O-] | inactive
35 | COC(=O)c1cc2c(-c3ccccc3)c(C)c3ccccn3c-2c1C(=O)OC | inactive
36 | O=C(N/N=C/c1c(O)ccc2ccccc12)c1ccc[n+](CCO)c1 | inactive
37 | Nc1c(C(=O)Nc2ccccc2)sc2nc3c(c(-c4ccco4)c12)CCC3 | inactive
38 | COc1cc(/C=C/c2nc(-c3ccccc3O)n[nH]2)cc(OC)c1OC | inactive
39 | CCCNc1nc2ccccc2n2c(C)nnc12 | inactive
40 | COc1ccccc1NCc1cc(=O)oc2c(C)c(O)ccc12 | inactive
41 | Cc1cc(C)c[n+](-c2nc([O-])sc2C=O)c1 | inactive
42 | Cc1cc(/C=C2\C(=O)NC(=O)N(c3cccc(F)c3)C2=O)c(C)n1-c1cc(C(=O)O)cc(C(=O)O)c1 | inactive
43 | COc1ccccc1-c1cn[nH]c1-c1ccc(O)cc1O | inactive
44 | COc1ccc(NC(=O)c2cccs2)cn1 | inactive
45 | CCOc1cc(/C=N/NC(=O)N/N=C/c2ccc(O)c(OCC)c2)ccc1O | inactive
46 | COc1ccc(OC)c(-n2c(-c3cc(-c4ccco4)[nH]n3)n[nH]c2=S)c1 | inactive

Row | Compound | activity change, negative = inhibition
47 | Nc1ccccc1C(=O)NNC(=O)C(=O)/C=C(\O)c1ccccc1 | inactive
48 | CSc1nsc2nc(=O)c(/C=C3\C(C)=Nc4ccc(C)cc43)c(N)n12 | inactive
49 | Cc1csc(NC(=O)c2ccc(-c3ccc(Cl)cc3Cl)o2)n1 | inactive
50 | C#CCOCCOCCOCCNc1nc(N2CCN(C(=O)[C@H]([C@@H](C)O)n3cc(CCCCN)nn3)CC2)nc(N2CCN(C(=O)[C@H](C)n3cc(CCCN=C(N)N)nn3)CC2)n1 | inactive
51 | CCCc1cc(C(=O)Cc2ccc(C(=O)OCC)o2)c(O)cc1O | inactive
52 | COc1ccc(/C=C/C(=O)c2cc(Cl)cc(Cl)c2O)c(OC)c1 | inactive
53 | O=c1c(OC2OC(CO)C(O)C(O)C2O)c(-c2ccc(O)c(O)c2)oc2cc(O)cc(O)c12 (stereo not given) | inactive
54 | Cc1nn(C(C)C(=O)NNC(=S)Nc2ccc(Cl)cc2)c(C)c1[N+](=O)[O-] (stereo not given) | inactive
55 | CCN(CC)c1ccc2nc3ccccc3[n+](CC)c2c1 | inactive
56 | CC1(N2CCOCC2)CC2(O)C(=[N+]1[O-])CCc1c2no[n+]1[O-] (stereo not given) | inactive
57 | CN1C(=O)N(C)C(c2cccc([N+](=O)[O-])c2)C2=C1CCCC2=O (stereo not given) | inactive
58 | Oc1ccc(C2C=C(c3ccc(F)cc3)Nc3ncnn32)cc1 (stereo not given) | inactive
59 | COC(=O)c1cc(NC(=O)c2ccccc2)c(=O)oc1C | inactive
60 | Cn1c(O)c(C2=c3ccccc3=NC2=O)[nH]c1=S | inactive
61 | Cc1cc([N+](=O)[O-])nn1CC(=O)NNC(=S)Nc1ccc(F)cc1 | inactive
62 | COc1ccccc1N1C(=O)S/C(=C\c2cccs2)C1=O | inactive
63 | CN1/C(=C\C=C(/C#N)C(=O)Nc2ccccc2F)C(C)(C)c2ccccc21 | inactive
64 | O=C1SC(SCc2ccccc2)=N/C1=C\c1ccc(C(=O)O)cc1 | inactive
65 | N=C1C(c2nc3ccccc3[nH]2)=C(O)CN1c1ccccc1 | inactive
